# Reference: PubChem BioAssay (NCI)
#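 Assay format: 96-well plates, 48-hour exposure. The concentration for full growth arrest is given as TGI.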
# How the values were obtained:
# Assay in all cases: NCI tumour cell line growth inhibition, 48 h
# OVCAR-8 ovarian = test system: OVCAR-8 ovarian
# HOP-18 NSCLC = test system: HOP-18 NSCLC
# COLO 205 colon = test system: COLO 205 colon
# SK-MEL-2 melanoma = test system: SK-MEL-2 melanoma
# NCI-H226 lung = test system: NCI-H226 lung
# TK-10 renal = test system: TK-10 renal
# CAKI-1 renal = test system: CAKI-1 renal
# KM12 colon = test system: KM12 colon
# SK-MEL-28 melanoma = test system: SK-MEL-28 melanoma
# LXFL 529 NSCLC = test system: LXFL 529 NSCLC
# ACHN renal = test system: ACHN renal
# UACC-257 melanoma = test system: UACC-257 melanoma
# U251 CNS = test system: U251 CNS
# SR leukemia = test system: SR leukemia
# RXF-631 renal = test system: RXF-631 renal
# M14 melanoma = test system: M14 melanoma
# EKVX NSCLC = test system: EKVX NSCLC
# SF-295 CNS = test system: SF-295 CNS
# LOX IMVI melanoma = test system: LOX IMVI melanoma
# K-562 leukemia = test system: K-562 leukemia
# OVCAR-3 ovarian = test system: OVCAR-3 ovarian
# M19-MEL melanoma = test system: M19-MEL melanoma
# OVCAR-4 ovarian = test system: OVCAR-4 ovarian
# HCT-116 colon = test system: HCT-116 colon
# DMS 114 small cell lung = test system: DMS 114 small cell lung
# NCI-H522 lung = test system: NCI-H522 lung
# SNB-19 CNS = test system: SNB-19 CNS
# MOLT-4 leukemia = test system: MOLT-4 leukemia
# IGROV1 ovarian = test system: IGROV1 ovarian
# DMS 273 small cell lung = test system: DMS 273 small cell lung
# SNB-75 CNS = test system: SNB-75 CNS
# OVCAR-5 ovarian = test system: OVCAR-5 ovarian
# DLD-1 colon = test system: DLD-1 colon
# HCC-2998 colon = test system: HCC-2998 colon
# SNB-78 CNS = test system: SNB-78 CNS
# UO-31 renal = test system: UO-31 renal
# RXF 393 renal = test system: RXF 393 renal
# NCI-H23 lung = test system: NCI-H23 lung
# SW-620 colon = test system: SW-620 colon
# XF 498 CNS = test system: XF 498 CNS
# UACC-62 melanoma = test system: UACC-62 melanoma
# HCT-15 colon = test system: HCT-15 colon
# HOP-62 NSCLC = test system: HOP-62 NSCLC
# RPMI-8226 leukemia = test system: RPMI-8226 leukemia
# SF-539 CNS = test system: SF-539 CNS
# HT29 colon = test system: HT29 colon
# A549 NSCLC = test system: A549 NSCLC
# SK-MEL-5 melanoma = test system: SK-MEL-5 melanoma
# SN12C renal = test system: SN12C renal
# MALME-3M melanoma = test system: MALME-3M melanoma
# NCI-H460 lung = test system: NCI-H460 lung
# SF-268 CNS = test system: SF-268 CNS
# KM20L2 colon = test system: KM20L2 colon
# HL-60(TB) leukemia = test system: HL-60(TB) leukemia
# P388 leukemia = test system: P388 leukemia
# P388/ADR leukemia = test system: P388/ADR leukemia
# SN12K1 renal = test system: SN12K1 renal
# NCI/ADR-RES ovarian = test system: NCI/ADR-RES ovarian
# MCF7 breast = test system: MCF7 breast
# SK-OV-3 ovarian = test system: SK-OV-3 ovarian
# HOP-92 NSCLC = test system: HOP-92 NSCLC
# CCRF-CEM leukemia = test system: CCRF-CEM leukemia
# A498 renal = test system: A498 renal
smiles,measurement,setting,value
CCOC(=O)[C@H]1Nc2c(cccc2[N+](=O)[O-])[C@H]2OCC[C@@H]12,TGI,OVCAR-8 ovarian,> 100 µM
same,TGI,HOP-18 NSCLC,> 100 µM
same,TGI,COLO 205 colon,> 100 µM
same,TGI,SK-MEL-2 melanoma,> 100 µM
same,TGI,NCI-H226 lung,> 100 µM
same,TGI,TK-10 renal,> 100 µM
same,TGI,CAKI-1 renal,> 100 µM
same,TGI,KM12 colon,> 100 µM
same,TGI,SK-MEL-28 melanoma,> 100 µM
same,TGI,LXFL 529 NSCLC,> 100 µM
same,TGI,ACHN renal,> 100 µM
same,TGI,UACC-257 melanoma,86.1 µM
same,TGI,U251 CNS,> 100 µM
same,TGI,SR leukemia,> 100 µM
same,TGI,RXF-631 renal,> 100 µM
same,TGI,M14 melanoma,> 100 µM
same,TGI,EKVX NSCLC,> 100 µM
same,TGI,SF-295 CNS,> 100 µM
same,TGI,LOX IMVI melanoma,> 100 µM
same,TGI,K-562 leukemia,> 100 µM
same,TGI,OVCAR-3 ovarian,> 100 µM
same,TGI,M19-MEL melanoma,> 100 µM
same,TGI,OVCAR-4 ovarian,> 100 µM
same,TGI,HCT-116 colon,> 100 µM
same,TGI,DMS 114 small cell lung,> 100 µM
same,TGI,NCI-H522 lung,> 100 µM
same,TGI,SNB-19 CNS,> 100 µM
same,TGI,MOLT-4 leukemia,> 100 µM
same,TGI,IGROV1 ovarian,> 100 µM
same,TGI,DMS 273 small cell lung,> 100 µM
same,TGI,SNB-75 CNS,> 100 µM
same,TGI,OVCAR-5 ovarian,> 100 µM
same,TGI,DLD-1 colon,> 100 µM
same,TGI,HCC-2998 colon,> 100 µM
same,TGI,SNB-78 CNS,> 100 µM
same,TGI,UO-31 renal,> 100 µM
same,TGI,RXF 393 renal,> 100 µM
same,TGI,NCI-H23 lung,> 100 µM
same,TGI,SW-620 colon,> 100 µM
same,TGI,XF 498 CNS,> 100 µM
same,TGI,UACC-62 melanoma,> 100 µM
same,TGI,HCT-15 colon,> 100 µM
same,TGI,HOP-62 NSCLC,> 100 µM
same,TGI,RPMI-8226 leukemia,> 100 µM
same,TGI,SF-539 CNS,> 100 µM
same,TGI,HT29 colon,> 100 µM
same,TGI,A549 NSCLC,> 100 µM
same,TGI,SK-MEL-5 melanoma,> 100 µM
same,TGI,SN12C renal,> 100 µM
same,TGI,MALME-3M melanoma,> 100 µM
same,TGI,NCI-H460 lung,> 100 µM
same,TGI,SF-268 CNS,> 100 µM
same,TGI,KM20L2 colon,> 100 µM
O=C(CCl)NC(Cc1ccc(F)cc1)C(=O)O (centres undefined),TGI,OVCAR-8 ovarian,> 100 µM
same,TGI,HOP-18 NSCLC,> 100 µM
same,TGI,COLO 205 colon,> 100 µM
same,TGI,SK-MEL-2 melanoma,> 100 µM
same,TGI,NCI-H226 lung,> 100 µM
same,TGI,CAKI-1 renal,> 100 µM
same,TGI,KM12 colon,> 100 µM
same,TGI,SK-MEL-28 melanoma,> 100 µM
same,TGI,UACC-257 melanoma,> 100 µM
same,TGI,HL-60(TB) leukemia,> 100 µM
same,TGI,P388 leukemia,> 100 µM
same,TGI,P388/ADR leukemia,> 100 µM
same,TGI,U251 CNS,> 100 µM
same,TGI,SN12K1 renal,> 100 µM
same,TGI,NCI/ADR-RES ovarian,> 100 µM
same,TGI,EKVX NSCLC,> 100 µM
same,TGI,SF-295 CNS,> 100 µM
same,TGI,LOX IMVI melanoma,> 100 µM
same,TGI,K-562 leukemia,> 100 µM
same,TGI,OVCAR-3 ovarian,> 100 µM
same,TGI,M19-MEL melanoma,> 100 µM
same,TGI,OVCAR-4 ovarian,> 100 µM
same,TGI,HCT-116 colon,> 100 µM
same,TGI,MCF7 breast,> 100 µM
same,TGI,SK-OV-3 ovarian,> 100 µM
same,TGI,DMS 114 small cell lung,> 100 µM
same,TGI,NCI-H522 lung,> 100 µM
same,TGI,SNB-19 CNS,> 100 µM
same,TGI,HOP-92 NSCLC,> 100 µM
same,TGI,MOLT-4 leukemia,> 100 µM
same,TGI,IGROV1 ovarian,> 100 µM
same,TGI,DMS 273 small cell lung,> 100 µM
same,TGI,SNB-75 CNS,> 100 µM
same,TGI,OVCAR-5 ovarian,> 100 µM
same,TGI,DLD-1 colon,> 100 µM
same,TGI,HCC-2998 colon,> 100 µM
same,TGI,SNB-78 CNS,> 100 µM
same,TGI,CCRF-CEM leukemia,> 100 µM
same,TGI,UO-31 renal,> 100 µM
same,TGI,NCI-H23 lung,> 100 µM
same,TGI,SW-620 colon,> 100 µM
same,TGI,XF 498 CNS,> 100 µM
same,TGI,UACC-62 melanoma,> 100 µM
same,TGI,HCT-15 colon,> 100 µM
same,TGI,HOP-62 NSCLC,> 100 µM
same,TGI,RPMI-8226 leukemia,> 100 µM
same,TGI,SF-539 CNS,> 100 µM
same,TGI,HT29 colon,> 100 µM
same,TGI,A549 NSCLC,> 100 µM
same,TGI,SK-MEL-5 melanoma,> 100 µM
same,TGI,SN12C renal,> 100 µM
same,TGI,MALME-3M melanoma,> 100 µM
same,TGI,A498 renal,> 100 µM
same,TGI,NCI-H460 lung,> 100 µM
same,TGI,SF-268 CNS,> 100 µM
same,TGI,KM20L2 colon,> 100 µM
